Patent US10004701B2, “Methods and compositions for treating infection” (UNIVERSITY OF ROCHESTER, priority 2012, dated 2018)
Where a name gives a salt, the structure may show the parent alone. Read-outs that look alike come from different tables or passages of the source.

Key:
Experiment in all cases: AK assay 384-well format, Prestwick library screening
[1] = system: S. aureus strain USA300-0114; type: cell-based, Staphylococcus aureus; details: 50 μM final drug concentration; for fold induction at 50 µM: Staphylococcus aureus, USA300, 3 h
E. faecium = type: cell-based, Enterococcus faecium; details: 50 μM final drug concentration; for fold induction at 50 µM: Enterococcus faecium, 3 h
P. aeruginosa = type: cell-based, Pseudomonas aeruginosa; details: 50 μM final drug concentration; for fold induction at 50 µM: Pseudomonas aeruginosa, 3 h
E. coli = type: cell-based, Escherichia coli; details: 50 μM final drug concentration; for fold induction at 50 µM: Escherichia coli, 3 h
E. cloacae = type: cell-based, Enterobacter cloacae; details: 50 μM final drug concentration; for fold induction at 50 µM: Enterobacter cloacae, 3 h
K. pneumoniae = type: cell-based, Klebsiella pneumoniae; details: 50 μM final drug concentration; for fold induction at 50 µM: Klebsiella pneumoniae, 3 h
[2] = system: A. baumannii strain 98-37-09; type: cell-based, Acinetobacter baumannii; details: 50 μM final drug concentration; for fold induction at 50 µM: Acinetobacter baumannii, 983709, 3 h

COC(=O)[C@H]1[C@H]2C[C@@H]3c4[nH]c5cc(OC)ccc5c4CCN3C[C@H]2C[C@@H](OC(=O)/C=C/c2cc(OC)c(OC)c(OC)c2)[C@@H]1OC [Rescinnamin]
AK-based Prestwick Library Screening Results, S. aureus (increase in extracellular AK activity) ([1]; planktonic S. aureus, cutoff for positive-scoring molecules 3-fold increase): 0.3
AK-based Prestwick Library Screening Results, E. faecium (increase in extracellular AK activity) (E. faecium; planktonic E. faecium, cutoff for positive-scoring molecules 3-fold increase): 1.0
AK-based Prestwick Library Screening Results, P. aeruginosa (increase in extracellular AK activity) (P. aeruginosa; planktonic P. aeruginosa, cutoff for positive-scoring molecules 3-fold increase): 0.4
AK-based Prestwick Library Screening Results, E. coli (increase in extracellular AK activity) (E. coli; planktonic E. coli, cutoff for positive-scoring molecules 3-fold increase): 0.7
AK-based Prestwick Library Screening Results, E. cloacae (increase in extracellular AK activity) (E. cloacae; planktonic E. cloacae, cutoff for positive-scoring molecules 3-fold increase): 0.6
AK-based Prestwick Library Screening Results, K. pneumoniae (increase in extracellular AK activity) (K. pneumoniae; planktonic K. pneumoniae, cutoff for positive-scoring molecules 3-fold increase): 0.6
AK-based Prestwick Library Screening Results, A. baumannii (increase in extracellular AK activity) ([2]; planktonic A. baumannii, cutoff for positive-scoring molecules 3-fold increase): 1.1

COC(=O)[C@H]1[C@H]2C[C@@H]3c4[nH]c5cc(OC)ccc5c4CCN3C[C@H]2C[C@@H](OC(=O)c2cc(OC)c(OC)c(OC)c2)[C@@H]1OC [Reserpine]
fold induction at 50 µM ([1]; cutoff for positive-scoring molecules 3-fold increase, read-out: AK-based Prestwick Library Screening Results, S. aureus (fold increase in extracellular AK activity)): 1.3
fold induction at 50 µM (E. faecium; cutoff for positive-scoring molecules 3-fold increase, read-out: AK-based Prestwick Library Screening Results, E. faecium (fold increase in extracellular AK activity)): 1.1
fold induction at 50 µM (P. aeruginosa; cutoff for positive-scoring molecules 3-fold increase, read-out: AK-based Prestwick Library Screening Results, P. aeruginosa (fold increase in extracellular AK activity)): 1.4
fold induction at 50 µM (E. coli; cutoff for positive-scoring molecules 3-fold increase, read-out: AK-based Prestwick Library Screening Results, E. coli (fold increase in extracellular AK activity)): 1.3
fold induction at 50 µM (E. cloacae; cutoff for positive-scoring molecules 3-fold increase, read-out: AK-based Prestwick Library Screening Results, E. cloacae (fold increase in extracellular AK activity)): 1.5
fold induction at 50 µM (K. pneumoniae; cutoff for positive-scoring molecules 3-fold increase, read-out: AK-based Prestwick Library Screening Results, K. pneumoniae (fold increase in extracellular AK activity)): 1.2
fold induction at 50 µM ([2]; cutoff for positive-scoring molecules 3-fold increase, read-out: AK-based Prestwick Library Screening Results, A. baumannii (fold increase in extracellular AK activity)): 1.5

COc1ccc2c3c([nH]c2c1)[C@H]1C[C@H]2[C@H](C[C@@H](O)[C@H](OC)[C@H]2C(=O)O)CN1CC3.Cl [Reserpinic acid hydrochloride]
AK-based Prestwick library screening result, S. aureus (fold increase in extracellular AK activity) ([1]; planktonic S. aureus, positive cutoff 3-fold increase): 0.6
AK-based Prestwick library screening result, E. faecium (fold increase in extracellular AK activity) (E. faecium; planktonic E. faecium, positive cutoff 3-fold increase): 0.9
AK-based Prestwick library screening result, P. aeruginosa (fold increase in extracellular AK activity) (P. aeruginosa; planktonic P. aeruginosa, positive cutoff 3-fold increase): 0.8
AK-based Prestwick library screening result, E. coli (fold increase in extracellular AK activity) (E. coli; planktonic E. coli, […]): 0.9
AK-based Prestwick library screening result, E. cloacae (fold increase in extracellular AK activity) (E. cloacae; planktonic E. cloacae, positive cutoff 3-fold increase): 1.0
AK-based Prestwick library screening result, K. pneumoniae (fold increase in extracellular AK activity) (K. pneumoniae; planktonic K. pneumoniae, positive cutoff 3-fold increase): 0.7
AK-based Prestwick library screening result, A. baumannii (fold increase in extracellular AK activity) ([2]; planktonic A. baumannii, positive cutoff 3-fold increase): 0.8

CC1=C(/C=C/C(C)=C/C=C/C(C)=C/C(=O)O)C(C)(C)CCC1 [Retinoic acid]
fold induction at 50 µM ([1]; 384-well format, cutoff for positive-scoring molecules 3-fold increase, read-out: AK-based Prestwick Library Screening Results, S. aureus (increase in extracellular AK activity)): 0.8
fold induction at 50 µM (E. faecium; 384-well format, cutoff for positive-scoring molecules 3-fold increase, read-out: AK-based Prestwick Library Screening Results, E. faecium (increase in extracellular AK activity)): 1
fold induction at 50 µM (P. aeruginosa; 384-well format, cutoff for positive-scoring molecules 3-fold increase, read-out: AK-based Prestwick Library Screening Results, P. aeruginosa (increase in extracellular AK activity)): 0.7
fold induction at 50 µM (E. coli; 384-well format, cutoff for positive-scoring molecules 3-fold increase, read-out: AK-based Prestwick Library Screening Results, E. coli (increase in extracellular AK activity)): 0.7
fold induction at 50 µM (E. cloacae; 384-well format, cutoff for positive-scoring molecules 3-fold increase, read-out: AK-based Prestwick Library Screening Results, E. cloacae (increase in extracellular AK activity)): 0.9
fold induction at 50 µM (K. pneumoniae; 384-well format, cutoff for positive-scoring molecules 3-fold increase, read-out: AK-based Prestwick Library Screening Results, K. pneumoniae (increase in extracellular AK activity)): 0.6
fold induction at 50 µM ([2]; 384-well format, cutoff for positive-scoring molecules 3-fold increase, read-out: AK-based Prestwick Library Screening Results, A. baumannii (increase in extracellular AK activity)): 0.8

NC(=O)c1ncn([C@@H]2O[C@H](CO)[C@@H](O)[C@H]2O)n1 [Ribavirin]
fold induction at 50 µM ([1]; planktonic S. aureus, positive cutoff 3-fold increase, read-out: AK-based Prestwick library screening result, S. aureus (fold increase in extracellular AK activity)): 0.7
fold induction at 50 µM (E. faecium; planktonic E. faecium, positive cutoff 3-fold increase, read-out: AK-based Prestwick library screening result, E. faecium (fold increase in extracellular AK activity)): 0.9
fold induction at 50 µM (P. aeruginosa; planktonic P. aeruginosa, positive cutoff 3-fold increase, read-out: AK-based Prestwick library screening result, P. aeruginosa (fold increase in extracellular AK activity)): 1.1
fold induction at 50 µM (E. coli; planktonic E. coli, positive cutoff 3-fold increase, read-out: AK-based Prestwick library screening result, E. coli (fold increase in extracellular AK activity)): 0.8
fold induction at 50 µM (E. cloacae; planktonic E. cloacae, positive cutoff 3-fold increase, read-out: AK-based Prestwick library screening result, E. cloacae (fold increase in extracellular AK activity)): 1.2
fold induction at 50 µM (K. pneumoniae; planktonic K. pneumoniae, positive cutoff 3-fold increase, read-out: AK-based Prestwick library screening result, K. pneumoniae (fold increase in extracellular AK activity)): 0.7
fold induction at 50 µM ([2]; planktonic A. baumannii, positive cutoff 3-fold increase, read-out: AK-based Prestwick library screening result, A. baumannii (fold increase in extracellular AK activity)): 0.9

Cc1cc2nc3c(=O)[nH]c(=O)nc-3n(C[C@H](O)[C@H](O)[C@H](O)CO)c2cc1C [Riboflavine]
fold induction at 50 µM ([1]; planktonic, cutoff for positive 3-fold increase, read-out: AK-based Prestwick Library Screening Results, S. aureus (fold increase in extracellular AK activity)): 0.9
fold induction at 50 µM (E. faecium; planktonic, cutoff for positive 3-fold increase, read-out: AK-based Prestwick Library Screening Results, E. faecium (fold increase in extracellular AK activity)): 1
fold induction at 50 µM (P. aeruginosa; planktonic, cutoff for positive 3-fold increase, read-out: AK-based Prestwick Library Screening Results, P. aeruginosa (fold increase in extracellular AK activity)): 1.2
fold induction at 50 µM (E. coli; planktonic, cutoff for positive 3-fold increase, read-out: AK-based Prestwick Library Screening Results, E. coli (fold increase in extracellular AK activity)): 1.1
fold induction at 50 µM (E. cloacae; planktonic, cutoff for positive 3-fold increase, read-out: AK-based Prestwick Library Screening Results, E. cloacae (fold increase in extracellular AK activity)): 1.5
fold induction at 50 µM (K. pneumoniae; planktonic, cutoff for positive 3-fold increase, read-out: AK-based Prestwick Library Screening Results, K. pneumoniae (fold increase in extracellular AK activity)): 1.6
fold induction at 50 µM ([2]; planktonic, cutoff for positive 3-fold increase, read-out: AK-based Prestwick Library Screening Results, A. baumannii (fold increase in extracellular AK activity)): 1.2

NC[C@H]1O[C@H](O[C@H]2[C@H](O[C@@H]3O[C@H](CO)[C@@H](O)[C@H]3O)[C@@H](O)[C@H](N)C[C@@H]2N)[C@H](N)[C@@H](O)[C@@H]1O [Ribostamycin sulfate salt]
fold induction at 50 µM ([1]; planktonic, cutoff for positive-scoring molecules 3-fold increase, read-out: AK-based Prestwick Library Screening Results, S. aureus (fold increase in extracellular AK activity)): 0.8
fold induction at 50 µM (E. faecium; planktonic, cutoff for positive-scoring molecules 3-fold increase, read-out: AK-based Prestwick Library Screening Results, E. faecium (fold increase in extracellular AK activity)): 0.9
fold induction at 50 µM (P. aeruginosa; planktonic, cutoff for positive-scoring molecules 3-fold increase, read-out: AK-based Prestwick Library Screening Results, P. aeruginosa (fold increase in extracellular AK activity)): 0.8
fold induction at 50 µM (E. coli; planktonic, cutoff for positive-scoring molecules 3-fold increase, read-out: AK-based Prestwick Library Screening Results, E. coli (fold increase in extracellular AK activity)): 0.9
fold induction at 50 µM (E. cloacae; planktonic, cutoff for positive-scoring molecules 3-fold increase, read-out: AK-based Prestwick Library Screening Results, E. cloacae (fold increase in extracellular AK activity)): 1.2
fold induction at 50 µM (K. pneumoniae; planktonic, cutoff for positive-scoring molecules 3-fold increase, read-out: AK-based Prestwick Library Screening Results, K. pneumoniae (fold increase in extracellular AK activity)): 0.7
fold induction at 50 µM ([2]; planktonic, cutoff for positive-scoring molecules 3-fold increase, read-out: AK-based Prestwick Library Screening Results, A. baumannii (fold increase in extracellular AK activity)): 0.8

COc1ccn(C)c(=O)c1C#N [Ricinine]
fold induction at 50 µM ([1]; planktonic, […], read-out: AK-based Prestwick Library Screening Results, S. aureus (fold increase in extracellular AK activity)): 0.9
fold induction at 50 µM (E. faecium; planktonic, […], read-out: AK-based Prestwick Library Screening Results, E. faecium (fold increase in extracellular AK activity)): 0.9
fold induction at 50 µM (P. aeruginosa; planktonic, […], read-out: AK-based Prestwick Library Screening Results, P. aeruginosa (fold increase in extracellular AK activity)): 0.7
fold induction at 50 µM (E. coli; planktonic, […], read-out: AK-based Prestwick Library Screening Results, E. coli (fold increase in extracellular AK activity)): 0.8
fold induction at 50 µM (E. cloacae; planktonic, […], read-out: AK-based Prestwick Library Screening Results, E. cloacae (fold increase in extracellular AK activity)): 1.3
fold induction at 50 µM (K. pneumoniae; planktonic, […], read-out: AK-based Prestwick Library Screening Results, K. pneumoniae (fold increase in extracellular AK activity)): 0.8
fold induction at 50 µM ([2]; planktonic, […], read-out: AK-based Prestwick Library Screening Results, A. baumannii (fold increase in extracellular AK activity)): 0.8
